Measured values as given in patent US7622490B2, “Broadspecturm 2-amino-benzoxazole sulfonamide HIV protease inhibitors” (Tibotec Pharmaceuticals, Ltd., priority 2001, dated 2009).

Assays:
Format in all cases: cell-based
HIV-1 strain LAI = experiment: Cellular anti-HIV assay (MTT) in MT4 cells, wild type strain; conditions: five days
Method: The compounds of the present invention were examined for anti-viral activity in a cellular assay. […] The cellular assay was performed according to the following procedure.
(§1) HIV- or mock-infected MT4 cells were incubated for five days in the presence of various concentrations of the inhibitor. At the end of the incubation period, all HIV-infected cells have been killed by the replicating virus in the control cultures in the absence of any inhibitor. Cell viability is measured by measuring the concentration of MTT, a yellow, water soluble tetrazolium dye that is converted to a purple, water insoluble formazan in the mitochondria of living cells only. Upon solubilization of the resulting formazan crystals with isopropanol, the absorbance of the solution is monitored at 540 nm. The values correlate directly to the number of living cells remaining in the culture at the completion of the five day incubation. The inhibitory activity of the compound was monitored on the virus-infected cells and was expressed as EC50 and EC90. […] Whetever results are reported as e.g. pEC50 or pCC50 values, the result is expressed as the negative logarithm of the result expressed as EC50 or CC50 respectively.
(§2) As a measure of the broad spectrum activity of the present compounds, the fold resistance (FR), defined as FR=EC50(mutant strain)/EC50(HIV-I strain LAI), was determined.

HIV strain A = experiment: Cellular anti-HIV assay, clinically isolated mutant strain A; conditions: FR=EC50(mutant strain)/EC50(HIV-I strain LAI); MT4 cells
Method: as §1, with “EC90. These values represent the amount of the compound required to protect 50% and 90%, respectively, of the cells from the cytopathogenic effect of the virus.” for “EC90.”, “respectively. […]” for “respectively.”
as §2

HIV strain B = experiment: Cellular anti-HIV assay, clinically isolated mutant strain B; conditions: FR=EC50(mutant strain)/EC50(HIV-I strain LAI); MT4 cells
Method: as §1, with “EC90. These values represent the amount of the compound required to protect 50% and 90%, respectively, of the cells from the cytopathogenic effect of the virus.” for “EC90.”, “respectively. […]” for “respectively.”
as §2

HIV strain C = experiment: Cellular anti-HIV assay, clinically isolated mutant strain C; conditions: FR=EC50(mutant strain)/EC50(HIV-I strain LAI); MT4 cells
Method: as §1, with “EC90. These values represent the amount of the compound required to protect 50% and 90%, respectively, of the cells from the cytopathogenic effect of the virus.” for “EC90.”, “respectively. […]” for “respectively.”
as §2

HIV strain D = experiment: Cellular anti-HIV assay, clinically isolated mutant strain D; conditions: FR=EC50(mutant strain)/EC50(HIV-I strain LAI); MT4 cells
Method: as §1, with “EC90. These values represent the amount of the compound required to protect 50% and 90%, respectively, of the cells from the cytopathogenic effect of the virus.” for “EC90.”, “respectively. […]” for “respectively.”
as §2

HIV strain E = experiment: Cellular anti-HIV assay, clinically isolated mutant strain E; conditions: FR=EC50(mutant strain)/EC50(HIV-I strain LAI); MT4 cells
Method: as §1, with “EC90. These values represent the amount of the compound required to protect 50% and 90%, respectively, of the cells from the cytopathogenic effect of the virus.” for “EC90.”, “respectively. […]” for “respectively.”
as §2

HIV strain F = experiment: Cellular anti-HIV assay, clinically isolated mutant strain F; conditions: FR=EC50(mutant strain)/EC50(HIV-I strain LAI); MT4 cells
Method: as §1, with “EC90. These values represent the amount of the compound required to protect 50% and 90%, respectively, of the cells from the cytopathogenic effect of the virus.” for “EC90.”, “respectively. […]” for “respectively.”
as §2

mock-infected MT4 cells = experiment: Toxicity on mock-infected MT4 cells (MTT); conditions: pCC50 value as determined with mock transfected cells; five days
Method: as §1, with “EC90. These values represent the amount of the compound required to protect 50% and 90%, respectively, of the cells from the cytopathogenic effect of the virus.” for “EC90.”
as §2

CNc1nc2ccc(S(=O)(=O)N(CC(C)C)CC(O)C(Cc3ccccc3)NC(=O)OC3COC4OCCNC34)cc2o1 (mixture of isomers) [Compound 43]
WT (pEC50) (HIV-1 strain LAI): 7.32
FR value towards mutant A (HIV strain A): 3.3
FR towards mutant B (HIV strain B): 1.6
FR towards mutant C (HIV strain C): 0.8
FR towards mutant D (HIV strain D): 0.62
FR towards mutant E (HIV strain E): 0.59
FR towards mutant F (HIV strain F): 14
Tox (pCC50) (mock-infected MT4 cells): 4

CNc1nc2ccc(S(=O)(=O)N(CC(C)C)CC(O)C(Cc3ccccc3)NC(=O)OC3COC4OCCNC34)cc2o1 (mixture of isomers) [Compound 44]
WT (pEC50) (HIV-1 strain LAI): 7.36
FR value towards mutant A (HIV strain A): 1.6
FR towards mutant B (HIV strain B): 1.3
FR towards mutant C (HIV strain C): 0.93
FR towards mutant D (HIV strain D): 0.56
FR towards mutant E (HIV strain E): 0.56
FR towards mutant F (HIV strain F): 4.9
Tox (pCC50) (mock-infected MT4 cells): 4
